Like-named read-outs stand apart in the source and are kept apart here.
Key:
Release kinetics assay = format: physicochemical; conditions: pH 4.0, 37° C.
Description: The SO1861 conjugate of interest was dissolved in an acetate buffer (20 mM, pH 4.0 or pH 5.0), a phosphate buffer (20 mM) or in a PBS buffer (pH 7.4) with a final concentration of 10 μM at 20° C. or at 37° C. The release of SO1861 was followed overtime by monitoring the decrease of the UPLC-UV 4 peak area of the SO1861 conjugate of interest at different time points.

[1] = system: human red blood cells (RBC); test: Haemolysis assay; format: cell-based; conditions: fresh human red blood cells
Description: Red blood cells (RBCs) were isolated from a buffy coat using a Ficoll gradient. The obtained RBC pellet (˜4-5 ml) was washed 2× with 50 ml DPBS (without Ca^2+/Mg^2+, PAN-Biotech GmbH). Cells were pelleted by centrifugation for 10 min, 800×g at RT. RBC were counted and resuspended at 500,000,000 c/ml in DPBS (without Ca^2+/Mg^2+), based on total cell count. SO1861-linker dilutions were prepared in DPBS (with Ca^2+/Mg^2+, PAN-Biotech GmbH), at 1.11× final strength. For positive lysis control a 0.02% Triton-X100 solution was prepared in DPBS^+/+. Of all compound solutions 135 μl was dispensed/well in a 96 well V-bottom plate. To this 15 μl RBC suspension was added and mixed shortly (10 sec-600 rpm). The plate was incubated 30 min at RT, with gentle agitation. Afterwards the plate was spun for 10 min at 800×g to pellet the RBC and 100-120 μl supernatant was transferred to a standard 96 wp. Subsequently, the OD at 405 nm was measured on a Thermo Scientific Multiskan FC plate reader (Thermo Scientific).

A431 cells [2] = format: cell-based, human
Description: (§1) Cell viability was determined by an MTS-assay, performed according to the manufacturer's instruction (CellTiter 96® AQueous One Solution Cell Proliferation Assay, Promega). Briefly, the MTS solution was diluted 20× in DMEM without phenol red (PAN-Biotech GmbH) supplemented with 10% FBS (PAN-Biotech GmbH). The cells were washed once with 200 μL PBS per well, after which 100 μL diluted MTS solution was added per well. The plate was incubated for approximately 20-30 minutes at 37° C. Subsequently, the optical density at 492 nm was measured on a Thermo Scientific Multiskan FC plate reader (Thermo Scientific).

HeLa cells [3] = format: cell-based, human
Description: as §1

A431 cells [4] = test: Cell toxicity (MTS cell viability assay); format: cell-based, human; conditions: saponin alone
Description: as §1

HeLa cells [5] = test: Cell toxicity (MTS cell viability assay); format: cell-based, human; conditions: saponin alone
Description: as §1

[6] = system: HSP27 mRNA expression in A431 cells; test: HSP27 gene silencing (qPCR) in A431 cells; format: cell-based; conditions: Homo sapiens, A-431, saponin titrated +50 nM Trastuzumab-HSP27BNA
Source text: RNA Isolation and Gene Expression Analysis
RNA from cells was isolated and analysed according to standard protocols (Biorad).

[7] = +5 pM EGFdianthin or 10 pM cetuximab-saporin or 50 pM Trastuzumab-saporin
[8] = read-out: IC50 nM (Activity; +5 pM EGFdianthin), saponin titrated +5 pM EGFdianthin

SMILES | time to 50% release of SO1861 (Release kinetics assay) [h] | IC50 ([1]; Erythrocyte) [µM] | cell-killing activity compared with the SO1861 derivatives (A431 cells [2]; [7]) | IC50 (A431 cells [2]; [8]) [nM] | cell-killing activity compared with the SO1861 derivatives (HeLa cells [3]; [7]) | IC50 (HeLa cells [3]; [8]) [nM] | IC50 (A431 cells [4]) [µM] | IC50 (HeLa cells [5]) [µM] | IC50 [1] [µM] | IC50 [6] [µM] | IC50 (HeLa cells [5]; Homo sapiens) [µM]
CC(=O)OC1C(C)OC(OC2C(C)OC(OC(=O)[C@]34CCC(C)(C)CC3C3=CCC5[C@@]6(C)CC[C@H](OC7OC(C(=O)O)C(O)C(OC8OCC(O)C(O)C8O)C7OC7OC(CO)C(O)C(O)C7O)[C@@](C)(C=NNC(=O)CCCCCN7C(=O)CC(SCCO)C7=O)C6CC[C@@]5(C)[C@]3(C)C[C@H]4O)C(OC3OC(C)C(OC4OCC(O)C(OC5OC(CO)C(O)C(O)C5O)C4O)C(O)C3O)C2O)C(O)C1OC1OCC(O)C(O)C1O (stereo partly drawn) [SO1861-EMCH (blocked)] | 12 | 6 | – | – | – | – | – | – | – | – | –
CC(=O)O[C@H]1[C@H](O[C@@H]2OC[C@@H](O)[C@H](O)[C@H]2O)[C@@H](O)[C@H](O[C@@H]2[C@H](O)[C@@H](O[C@@H]3O[C@@H](C)[C@H](O[C@@H]4OC[C@@H](O)[C@H](O[C@@H]5O[C@H](CO)[C@@H](O)[C@H](O)[C@H]5O)[C@H]4O)[C@@H](O)[C@H]3O)[C@H](OC(=O)[C@]34CCC(C)(C)C[C@H]3C3=CC[C@@H]5[C@@]6(C)CC[C@H](O[C@@H]7O[C@H](C(=O)O)[C@@H](O)[C@H](O[C@@H]8OC[C@@H](O)[C@H](O)[C@H]8O)[C@H]7O[C@@H]7O[C@H](CO)[C@H](O)[C@H](O)[C@H]7O)[C@@](C)(C=O)[C@@H]6CC[C@@]5(C)[C@]3(C)C[C@H]4O)O[C@@H]2C)O[C@@H]1C [SO1861] | – | – | strongest cell-killing activity | 300 | strongest cell-killing activity | 500 | 2 | 9 | 10 | – | –
CC(=O)OC1C(C)OC(OC2C(C)OC(OC(=O)[C@]34CCC(C)(C)CC3C3=CCC5[C@@]6(C)CC[C@H](OC7OC(C(=O)O)C(O)C(OC8OCC(O)C(O)C8O)C7OC7OC(CO)C(O)C(O)C7O)[C@@](C)(C=NNC(=O)N7CCN(C(=O)CCCCCN8C(=O)C=CC8=O)CC7)C6CC[C@@]5(C)[C@]3(C)C[C@H]4O)C(OC3OC(C)C(OC4OCC(O)C(OC5OC(CO)C(O)C(O)C5O)C4O)C(O)C3O)C2O)C(O)C1OC1OCC(O)C(O)C1O (stereo partly drawn) [SO1861-SC-Mal] | – | 250 | – | – | – | – | – | – | – | 0.6 | > 100
